Test results from US20070202079A1, “Therapeutic compositions and methods useful in modulating protein tyrosine phosphatases” (priority 2006, published 2007).
One block for each compound: values may come before it.

Key:
SHP-1 = biological target: T1, SHP-1 (Mus musculus, UniProt P29351); experiment: in vitro PTPase assay, GST/SHP-1; type: biochemical; details: for inhibitory activity against SHP-1: 3-4 μg/ml or 10-100 μg/ml
T1 construct: made in house
Protocol: In vitro PTPase activities were measured using the commercial protein tyrosine phosphatase assay kit (Upstate Biotechnology, Inc. (“UBI”)) following established procedure known to one of skill in the art. […] Briefly, 0.01 μg of GST/PTPase fusion proteins was incubated in 50 μl of Tris buffer (10 mM Tris, pH 7.4) containing different concentrations of inhibitors or chemicals (0-1,000 μg/ml) at 22° C. for 10 minutes, followed by addition of 0.2 mM of the phosphotyrosine peptide and incubation at 22° […] 100 μl of Malachite Green solution was added and incubated for 5 minutes, and the absorbance at 660 nm was measured after 5 minutes.
To assess the reversibility of inhibition of SHP-1 by PTPase inhibitors, GST/SHP-1 fusion protein bound on glutathione beads were pre-incubated in cold Tris buffer or Tris buffer containing the PTPase inhibitors at 4° C. for 30 minutes. The beads were then either subjected to in vitro PTPase assays or washed 3 times in Tris buffer then subjected to in vitro PTPase assays.
Briefly, individual PTPases (0.1 μg/reaction) in 50 μL of PTPase buffer (50 mM Tris, pH 7.4) were incubated at 22° C. for 10 minutes or as indicated in the absence or presence of inhibitory compounds. Substrates (0.2 mM phosphotyrosine peptide) were then added and allowed to react at 22° C. for 18 hrs. PTPase activity of individual reactions was measured by adding 100 μL of malachite green solution (UBI) and then quantifying the amounts of free phosphate cleaved by the PTPase from the peptide substrate by spectrometry (OD660 nm). […] Relative PTPase activities were calculated based on the formula: (PTPase activity in the presence of an inhibitory compound/PTPase activity in the absence of the compound)× 100%. To assess the reversibility of PTPase inhibition, GST fusion proteins of the PTPases bound on glutathione beads (Pharmacia) were pre-incubated with cold Tris buffer (50 mM Tris, pH 7.0) or Tris buffer containing the inhibitor at 4° C. for 30 minutes. The beads were then washed three times in cold Tris buffer or not washed prior to subjecting to in vitro PTPase assays.

WM9 cells = experiment: WM9 cell growth, MTT; type: cell-based, human
Protocol: For cell proliferation assays, cells were grown in 10% FCS culture medium containing various amounts of IFNs and/or sodium stibogluconate in 96 well plates and cultured at 37° C. for 3 or 6 days as indicated. The numbers of viable cells in proliferation assays were determined by MTT assays as described in Phatak et al., J. Immunol. 167, 3391 (2001).
Renca (Murphy, G. P., and W. J. Hrushesky. 1973. A murine renal cell carcinoma. J Natl Cancer Inst 50:1013), Jurkat (Gillis, S., and J. Watson. 1980. Biochemical and biological characterization of lymphocyte regulatory molecules. V. Identification of an interleukin 2-producing human leukemia T cell line. J Exp Med 152:1709) and WM9 (Forsberg, K., I. Valyi-Nagy, C. H. Heldin, M. Herlyn, and B. Westermark. 1993. Platelet-derived growth factor (PDGF) in oncogenesis: development of a vascular connective tissue stroma in xenotransplanted human melanoma producing PDGF-BB. Proc Natl Acad Sci USA 90:393) cell lines were obtained from a colleague at the Cleveland Clinic Foundation (CCF) and cultured in RPMI 1640 medium supplemented with 10% fetal calf serum (FCS). Recombinant IL-2 (Proleukin, 22 million IU/1.3 mg, Chiron, Emeryville, Calif.) was purchased from the CCF pharmacy. SSG has been described previously (Yi, T., M. K. Pathak, D. J. Lindner, M. E. Ketterer, C. Farver, and E. C. Borden. 2002. Anticancer activity of sodium stibogluconate in synergy with IFNs. J Immunol 169:5978).
NIH3T3 (Yi, et al., Blood 85, 87 (1995)), WM9 (Forsberg, et al., Proc. Nat. Acad Sci. USA 90, 393 (1993)), DU145 (Mickey, et al., Cancer Res. 37, 4049 (1977)), LoVo (Drewinko, et al., Cancer Res. 36, 467 (1976)), HEY (Buick, et al., Cancer Res. 45, 3668 (1985)), U251 (Yoshida, et al., Cancer 50, 410 (1982)), A549 (Giard, et al., J. Natl. Cancer Inst. 51, 1417 (1973)) and SK-N-SH (Helson, et al., Cancer Res. 35, 2594 (1975)) cell lines have been described and were cultured in RPMI 1640 supplemented with 10% fetal calf serum (FCS). For measurement of sodium stibogluconate effects on cell growth in vitro, cells were cultured in the absence (−) or presence (+) of various amounts of sodium stibogluconate for 6 days with viable cells quantified by MTT assays (Mosmann, J. Immunol. Methods 65, 55 (1983)). Percentages of growth inhibition by sodium stibogluconate were calculated (.+−.x%).

inhibitory activity against SHP-1 (SHP-1): no obvious inhibitory activity
Structure (SMILES): CC(=O)N1CCN(c2ccc(OCC3COC(Cn4ccnc4)(c4ccc(Cl)cc4Cl)O3)cc2)CC1 (centres unmarked) [ketoconazole]
effect on IFN-alpha activity, WM9 (WM9 cells; 40 μg/ml): minor augmenting effect | activity against WM9 cells (WM9 cells; 0.625-20 μg/ml, single agent or with IFN-alpha): no apparent activity | inhibition at 40 µg/mL (WM9 cells; Homo sapiens, WM9, 144 h, single agent, 40 μg/ml, 6 days): 67%

inhibitory activity against SHP-1 (SHP-1): no obvious inhibitory activity
Structure (SMILES): N=C(N)c1ccc(OCCCCCOc2ccc(C(=N)N)cc2)cc1 [pentamidine]
effect on IFN-alpha-induced growth inhibition of WM9 (WM9 cells; most obviously at 0.625-1.25 μg/ml): augmented IFN-alpha-induced growth inhibition | growth inhibition of WM9 cells (WM9 cells; single agent, 2.5-5 μg/ml, 6 days): 86-97%

Structure (SMILES): O.O.O.O.O.O.O.O.O.O=C([O-])[C@@H]1[O][Sb]2([O-])([O][Sb]34([OH])[O][C@H]([C@H](O)CO)[C@H]([O]3)[C@H](C(=O)[O-])[O]4)[O][C@H]([C@H](O)CO)[C@@H]1[O]2.[Na+].[Na+].[Na+] [sodium stibogluconate]
activity of parental mixture against recombinant SHP-1 (SHP-1; Sb concentration of 10 μg/ml): inactivated SHP-1 | inhibition of GST/SHP-1 after washing (reversibility) (SHP-1; pre-incubated 30 min at 4 °C, beads washed 3 times): not affected by washing | WM9 cells, single agent (WM9 cells; 50 μg/ml and 100 μg/ml, day 6 culture): killed all cells | WM9 cell growth in culture (WM9 cells; SSG, 6 days, comparable conditions): inhibited by SSG in a dose-dependent manner
